From patent EP1897937A1, “Method of culturing NPCs” (NeuroProgen GmbH Leipzig, priority 2006, dated 2008) come the findings set out here.

SMILES strings stand for the structures.

In assay [1] the test system is hmNPCs. Description: Western blot of proliferation marker PCNA and survival marker Bcl-2. Format: cell-based, human. As to conditions: 2 weeks. How it is done: (§1) To determine long-term proliferation, hmNPCs were plated and expanded for 2 passages with or without addition of various agents (see below) to the custom expansion media containing the growth factors EGF and FGF2. Different fetal midbrain tissues were included in this study. At the end of the proliferation period, differentiation of hmNPCs was induced via replacement of expansion media with mitogen-free media containing 1% FCS, 5 µM forskoline (Sigma-Aldrich Chemie GmbH Munich, Germany), and 100 pg/ml IL-1β (Sigma). The differentiation and expansion media were supplemented with different drugs as appropriate. Prior to immunocytochemistry or protein extraction, hmNPCs were allowed to differentiate for 1 week. To determine short-term proliferation via Ki67 immunostaining, the cells were seeded into 24-well plates (70,000 cells/well) and left overnight to rest. P2 receptor agonists (ATP, UTP, ATP + UTP, ADP, ADPβS) were supplied daily for 5 consecutive days. Ki67/nestin double-positive cells were counted in 8 randomly selected fields of nucleotide-treated or untreated samples. For the assessment of MAPK phosphorylation the cells were kept free of mitogens for 2 d prior to addition of the MEK-inhibitor in expansion media. In addition, the MEK-inhibitor was added during the differentiation period 15 min before UTP administration.
In order to prepare protein extracts, hmNPCs were collected, washed with ice-cold PBS and lysed in buffer [10 mM HEPES-KOH (pH 7.9), 10 mM KCI, 1.5 mM MgCl2, 0.1% NP-40], supplemented with protease inhibitor cocktail (Roche). After a brief centrifugation at 4°C/10 000×g, protein concentrations and protein yield from extracts were determined using the Bradford method (Bio-Rad, Hercules, CA, USA). To preserve the phosphorylation state of proteins, extracts for the MAPK experiment were obtained using the PhosphoSafe™ extraction reagent containing phophatase inhibitors (Novagen). […] The chemiluminescence was quantified using the AIDA, two-dimensional densitometry software (Raytest lsotopenmeb, Straubenhardt, Germany). […]
(In general: A western blot detects proteins with antibodies after separation by electrophoresis.)

Assay [2] relates to hmNPCs. Description: Short-term proliferation: Ki67/nestin immunostaining. Type of assay: cell-based, human. As to conditions: Homo sapiens, 120 h, 1 µM, 5 subsequent days. Here is the method:
as §1, with “hmNPCs” left out, “μM” for “µM”, “administration. […] Cover-slips were mounted onto glass slides and examined under a fluorescence microscope (Zeiss Axiovert 200). Acquisition of the cells was performed using the Image-analysis software AxioVision 4 (Carl Zeiss AG, Jena, Germany). The following primary antibodies were used for immunofluorescence: rabbit polyclonal anti-β-tubulin III (anti-Tuj1) antibody, rabbit polyclonal anti-tyrosine hydroxylase antibody , mouse monoclonal anti-nestin antibody (Pharmingen, San Diego, CA, USA), rabbit polyclonal anti-Ki67 antigen antibody (Novocastra Laboratories Ltd, Newcastle upon Tyne, UK). Estimation of the TH-positive cell numbers was performed by counting of cells among approximately 1000 differentiated cells in total within 6 randomly selected fields.” for “administration.”

Turning to `O=c1ccn([C@@H]2O[C@H](COP(=O)(O)OP(=O)(O)OP(=O)(O)O)[C@@H](O)[C@H]2O)c(=O)[nH]1` [UTP, uridine 5'-triphosphate], the activity at 1 µM worked out at 330 ± 23% in assay [1] (Homo sapiens, 336 h, 1 µM, read-out: expression of the proliferation marker PCNA compared to control cells); 193 ± 3% in assay [2] (read-out: NPCs double-immunoreactive for Ki67 and nestin); 188 ± 2% in assay [2] (read-out: cells immunoreactive for nestin alone). Moreover, the “expression of the survival marker Bcl-2” value in assay [1] (increasing UTP concentrations) is “did not significantly change”.
